The values below come from patent US20230414560A1, “COMPOSITIONS AND METHODS FOR TREATING ECZEMA” (General Nutraceutical Technology LLC, priority 2022, published 2023).

In general, IC50 refers to the point on the concentration scale where inhibition reaches its midpoint. A low value points to greater potency.

Converted amounts (≈) assume the structure as drawn. Read-outs that look alike come from different tables or passages of the source.

For data set [1] the following is noted: cited from earlier work.
Data set [2] relates to U266 cells. The data set can be described thus: U266 cell viability (trypan blue exclusion). It counts as cell-based, Human. The settings on record: at the concentrations reducing IgE. As to the method: (§1) Cell viability of U266 was measured by trypan blue exclusion (Yang, Patil, et al., 2013). Cell suspension (10 uL) was mixed with trypan blue dye (10 uL), and viable cells and total cells counted with a hemocytometer. The cell viability was calculated using the equation: cell viability=(total number of viable cells)/(total number of cells). The viability of Raw 264.7 was evaluated using the MTT assay carried out as previously described (Liu, C. et al., 2015, Phytother Res, 29(6), 925-932). Cells were seeded into a 96-well plate at 2×10^4 cells/well, then different concentrations of SZT-I or active compounds were added to the plate. After 24 h, 50 μL MTT (2.0 mg/mL) was added to wells and the plate was incubated for a further 3 h. The supernatant was discarded, and the generated formazan was dissolved in dimethyl sulfoxide (DMSO) (200 μL). The absorbance of wells was detected at 590 nm.

The test system of data set [3] is Bcl2. The data set can be described thus: RT-PCR mRNA expression of hub target Bcl2 after LPS. It counts as cell-based, murine. The settings on record: Raw cells. As to the method:
(§2) Expressions of targets were measured by RT-PCR. After treatment, total RNA was collected from the esophagus. Reverse transcription was conducted to obtain the cDNA. The RT-PCR amplification was performed using SYBRTM Green Master Mix with primers. The primer sequences were listed as follows: m-TNF-α: F-[…] (SEQ ID NO: 3); R-[…] (SEQ ID NO: 4). m-Bcl2: F-[…] (SEQ ID NO: 5); R-[…] (SEQ ID NO: 6). m-IL1B: F-[…] (SEQ ID NO: 7); R-[…] TGTGTG (SEQ ID NO: 8). m-PPARG: F-[…] (SEQ ID NO: 9); R-[…] (SEQ ID NO: 10).

Data set [4] has as its system IL1B. As to the kind of experiment: RT-PCR mRNA expression of hub target IL1B after LPS. It counts as cell-based, murine. The following applies: after LPS stimulation. As to the method: as §2
Data set [5] relates to PPARG. As to the kind of experiment: RT-PCR mRNA expression of hub target PPARG after LPS. It counts as cell-based, murine. The following applies: inhibited by LPS. As to the method:
as §2

Data set [6] concerns Raw 264.7 cells. The data set can be described thus: Raw 264.7 cytotoxicity (MTT assay). It counts as cell-based, murine. The settings on record: luteolin concentrations tested. As to the method:
as §1

For data set [7], the system named is TNF-α. As to the kind of experiment: TNF-α production by LPS-stimulated RAW 264.7 cells (ELISA). It counts as cell-based, murine. As to the method:
(§3) Human U266 myeloma cells were cultured in complete media containing RPMI-1640 medium with 10% fetal bovine serum (FBS), 0.5% penicillin-streptomycin, 1×10^−5 mol/L of 0-mercaptoethanol, and 1 mmol/L of sodium pyruvate at 37° C. in an incubator with 5% CO2. U266 cells were cultured at initial 2×10^5 cell/mL with SZT-I or active compounds at different concentration. Then the supernatants were collected after 6 days. The level of IgE was. measured by an enzyme-linked immunosorbent assay (ELISA) kit according to the manufacturer's instructions. RAW 264.7 murine macrophages (5×10^5 cell/mL) were cultured in DMEM medium supplemented with 10% FBS, and 0.5% penicillin-streptomycin at 37° C. under 5% CO2. SZT-I or active compounds at different concentrations and LPS (0.5 μg/mL) added to cells. Supernatants were harvested after 24 h and analyzed by ELISA for TNF-α (Mabtech, In vitro studies-Cell viability Inc, Cincinnati, Ohio). Eotaxin inhibitory assays were conducted by using human fetal lung fibroblast (HFL-1) cells. HFL-1 (CCL-153) cells were grown in F-12K medium (ATCC, Rockville, MD) containing 10% fetal bovine serum (Gibco BRL, Grand Island, NY) and 1% penicillin-streptomycin (BD Bio, San Jose, CA). […] Eotaxin levels were determined by using ELISA (R&D Systems) according to the directions of the manufacturer.
For orientation: In an ELISA, binding on a coated surface is turned into a signal by an enzyme label.

Data set [8] has as its system TNF-α. As to the kind of experiment: RT-PCR mRNA expression of hub target TNF-α after LPS. It counts as cell-based, murine. The settings on record: after LPS stimulation. The procedure:
as §2

In data set [9] the test system is IgE. The data set can be described thus: IgE production by U266 myeloma cells (ELISA). It counts as cell-based, Human. The procedure: as §3

Regarding `COc1cc2oc3c4c(O)cc(O)cc4oc(=O)c3c2cc1OC` [1,3-dihydroxy-8,9-dimethoxy-6-benzofurano[3,2-c]chromenone], the “O.B. (oral bioavailability)” value in data set [1] (TCMSP database, Table 1) was 62.9. For `COc1cc(O)cc2c1[C@@H]1Oc3c(ccc(O)c3CC=C(C)C)[C@@H]1CO2` [1-Methoxyphaseol-lidin], in data set [1] (TCMSP database, Table 1), the “O.B. (oral bioavailability)” value is listed as 69.98. Take `CC(C)=CCc1c(O)cc(O)c2c(=O)c(-c3ccc(O)c(O)c3)coc12` [3-(3,4-dihydroxyphenyl)-5,7-dihydroxy-8-(3-methylbut-2-enyl)chromone]: the “O.B. (oral bioavailability)” value in data set [1] (TCMSP database, Table 1) is reported as 66.37. Turning to `CCCCC/C=C/C/C=C/CCCCCCCCCC(=O)O` [11,14-eicosadienoic acid], the “O.B. (oral bioavailability)” value in data set [1] (TCMSP database, Table 1) is 39.99. On to `O=C1C[C@H](c2ccc(O)cc2)Oc2cc(O)ccc21` [(2R)-7-hydroxy-2-(4-hydroxyphenyl) chroman-4-one], for which the “O.B. (oral bioavailability)” value in data set [1] (TCMSP database, Table 1) is given as 71.12.

`C=C(C)[C@@H]1CC[C@]2(C(=O)O)CC[C@]3(C)[C@H](CC[C@@H]4[C@@]5(C)CC[C@H](O)C(C)(C)[C@@H]5CC[C@]43C)[C@@H]12` [Betulinic acid]: in data set [1] (TCMSP database, Table 1), the “O.B. (oral bioavailability)” value is 55.38. For `COc1cc(-c2cc(=O)c3c(O)cc(O)cc3o2)ccc1O` [Chryseriol], the “O.B. (oral bioavailability)” value in [1] (TCMSP database, Table 1) is given as 35.85.

For the compound `Oc1cc(O)c2c(c1)O[C@H](c1ccc(O)c(O)c1)[C@@H](O)C2` [Cianidanol], the “O.B. (oral bioavailability)” value in [1] (TCMSP database, Table 1) is reported as 36.91. As to `CC/C=C/C/C=C/C/C=C/CCCCCCCC(=O)OCC` [Ethyl linolenate], the “O.B. (oral bioavailability)” value in [1] (TCMSP database, Table 1) was 46.1. Regarding `CCCCCCCC/C=C\CCCCCCCC(=O)OCC` [Ethyl oleate], the “O.B. (oral bioavailability)” value in data set [1] (TCMSP database, Table 1) was 32.4. With `COc1ccc(-c2coc3cc(O)ccc3c2=O)cc1` [Formononetin], in [1] (TCMSP database, Table 1), the “O.B. (oral bioavailability)” value is 69.67. As for `CC1(C)C=Cc2c(ccc3c2OC[C@@H](c2ccc(O)cc2O)C3)O1` [Glabridin], in data set [1] (TCMSP database, Table 1), the “O.B. (oral bioavailability)” value is on record as 53.25.

`CC1(C)C=Cc2c(ccc(-c3coc4cc(O)ccc4c3=O)c2O)O1` [Glabrone]: in data set [1] (TCMSP database, Table 1), the “O.B. (oral bioavailability)” value is 52.51. Take `COc1c(CC=C(C)C)c(O)cc2oc(=O)c3c4ccc(O)cc4oc3c12` [Glycyrol]: the “O.B. (oral bioavailability)” value in data set [1] (TCMSP database, Table 1) is given as 90.78. Consider `COc1ccc(C(=O)/C=C/c2ccc(O)cc2OC)cc1` [Glypallichalcone], for which the “O.B. (oral bioavailability)” value in [1] (TCMSP database, Table 1) is 61.6. Regarding `O=C1/C(=C2\Nc3ccccc3C2=O)Nc2ccccc21` [Indigo], in data set [1] (TCMSP database, Table 1), the “O.B. (oral bioavailability)” value was 38.2. Turning to `O=c1c(O)c(-c2ccc(O)cc2)oc2cc(O)cc(O)c12` [Kaempferol], the “O.B. (oral bioavailability)” value in data set [1] (TCMSP database, Table 1) is given as 41.88.

Regarding `CC1(C)C=Cc2c(ccc3cc(-c4ccc(O)cc4O)c(=O)oc23)O1` [Kanzonols W], in [1] (TCMSP database, Table 1), the “O.B. (oral bioavailability)” value is given as 50.48. Regarding `COc1c(/C=C/C(=O)c2ccc(O)cc2)ccc(O)c1O` [Licochalcone B], in [1] (TCMSP database, Table 1), the “O.B. (oral bioavailability)” value is reported as 76.76. With `CC(C)=CCc1c(O)cc(O)c2c(=O)c(-c3ccc(O)cc3)coc12` [Lupiwighteone], in data set [1] (TCMSP database, Table 1), the “O.B. (oral bioavailability)” value is given as 51.64. Regarding `O=c1cc(-c2ccc(O)c(O)c2)oc2cc(O)cc(O)c12` [Luteolin], in [2], the “cytotoxicity on U266” value is recorded as “without cytotoxicity”. For the same compound, the “mRNA expression of Bcl2” value in [3] was “increased the expression of Bcl2 significantly”. Further, the “mRNA expression of IL1B” value in data set [4] is “reversed”. The “mRNA expression of PPARG” value in [5] was “upregulated”. For the same compound, in data set [6], the “cell toxicity on Raw 264.7” value was “no significant cell toxicity”. In addition, the “OB (oral bioavailability)” value in [1] (TCMSP database) is 36.16%. For the same compound, the half-inhibitory concentration (IC50) in [7] (Mus musculus, RAW264.7, Raw 264.7 cells, LPS 0.5 μg/mL, 24 h) was 5.61 µg/mL (≈ 19.6 µM); in [9] (Homo sapiens, U-266, 144 h, 6 days), approximately 4.81 µg/mL (≈ 16.8 µM). Besides, the “production of TNF-α compared with quercetin and kaempferol” value in data set [7] (Raw 264.7 cells stimulated by LPS, 20 μg/mL) is recorded as “significantly inhibited”. In data set [8], the “mRNA expression of TNF-α” value is “reversed”. In data set [9] (10 μg/mL), the “production of IgE” value was “strongly diminished”. `CCCCC/C=C\C/C=C\CCCCCCCC(=O)OCC` [Mandenol]: in data set [1] (TCMSP database, Table 1), the “O.B. (oral bioavailability)” value is reported as 42. In the case of `C=C(CC[C@@H](C(=O)O)[C@H]1[C@H](O)C[C@@]2(C)C3=C(CC[C@]12C)[C@@]1(C)CC[C@H](OC(C)=O)C(C)(C)[C@@H]1CC3)C(C)C` [Pachymic acid], the “O.B. (oral bioavailability)” value in data set [1] (TCMSP database, Table 1) is 33.63. In the case of `O=c1c(O)c(-c2ccc(O)c(O)c2)oc2cc(O)cc(O)c12` [Quercetin], the “O.B. (oral bioavailability)” value in data set [1] (TCMSP database, Table 1) is given as 46.43. On to `CC(C)=CC[C@H](O)C1=CC(=O)c2c(O)ccc(O)c2C1=O` [Shikonin], for which the “O.B. (oral bioavailability)” value in data set [1] (TCMSP database, Table 1) is on record as 64.79. With `CCC(/C=C/[C@H](C)[C@@H]1CC[C@@H]2[C@@H]3CC=C4C[C@@H](O)CC[C@]4(C)[C@@H]3CC[C@@]21C)C(C)C` (stereo partly shown) [ZINC03978781], the “O.B. (oral bioavailability)” value in data set [1] (TCMSP database, Table 1) is listed as 43.83. On to `CN1CCc2cc3c(cc2[C@H]1[C@H]1OC(=O)c2c1ccc1c2OCO1)OCO3` [bicuculline], for which the “O.B. (oral bioavailability)” value in data set [1] (TCMSP database, Table 1) is reported as 69.67. Take `CC(C)=CCc1c(O)cc2c(c1O)C=C(c1ccc(O)cc1O)CO2` [dehydroglyasperins C]: the “O.B. (oral bioavailability)” value in [1] (TCMSP database, Table 1) is listed as 53.82.

Turning to `O=C1C[C@@H](c2ccc(O[C@@H]3O[C@H](CO)[C@@H](O)[C@H](O)[C@H]3O)cc2)Oc2cc(O)ccc21` [liquiritin], the “O.B. (oral bioavailability)” value in [1] (TCMSP database, Table 1) is given as 65.69.

Take `C[C@@]12C[C@@]3(O)O[C@H](O1)[C@@]1(COC(=O)c4ccccc4)[C@@H]3C[C@]12O[C@@H]1O[C@H](CO)[C@H](O)[C@H](O)[C@@H]1O` [paeoniflorin_qt]: the “O.B. (oral bioavailability)” value in [1] (TCMSP database, Table 1) is reported as 68.18.

Consider `COc1c(O)cc(O)c2c(=O)cc(-c3ccccc3)oc12` [wogonin], for which, in [1] (TCMSP database, Table 1), the “O.B. (oral bioavailability)” value is on record as 30.68.

For the compound `CC1=C(/C=C/C(C)=C/C=C/C(C)=C/C=C/C=C(C)/C=C/C=C(C)/C=C/C2=C(C)CCCC2(C)C)C(C)(C)CCC1` [β-carotene], the “O.B. (oral bioavailability)” value in data set [1] (TCMSP database, Table 1) is on record as 37.18. In the case of Sitosterol, the “O.B. (oral bioavailability)” value in data set [1] (TCMSP database, Table 1) is 36.91. In data set [1] (TCMSP database), the “OB (oral bioavailability)” value is 36.91%.

Stigmasterol: the “O.B. (oral bioavailability)” value in [1] (TCMSP database, Table 1) is given as 43.83. Moreover, the “OB (oral bioavailability)” value in [1] (TCMSP database) is on record as 43.83%.

For the compound β-amyrin acetate, in [1] (po), the “O.B. (oral bioavailability)” value is 42.06. With β-sitosterol, the “O.B. (oral bioavailability)” value in data set [1] (TCMSP database, Table 1) was 36.91. Also, in data set [1] (TCMSP database), the “OB (oral bioavailability)” value is reported as 36.91%.
